Data taken from ChEMBL document CHEMBL5614413, “Design, synthesis and biological evaluation of amphiphilic benzopyran derivatives as potent antibacterial agents against multidrug-resistant bacteria” (Eur J Med Chem, 2024).
Values after ≈ are worked out from the molar mass of the structure shown. Active and inactive are the calls of the source. The calls are words filed in the database; no cut-off is given here.

Tests used:
Staphylococcus aureus [1] = test: Antibacterial activity against erythromycin-susceptible Staphylococcus aureus ATCC 25923; assay type: functional
Staphylococcus aureus [2] = test: (§1) Antibacterial activity against methicillin-resistant Staphylococcus aureus ATCC 43300 infected in sepsis mouse model assessed as reduction in bacterial load in spleen at 10 mg/kg pre-infected with bacteria for 1 hrs followed by continuous compound administration at 12 hrs intervals for 2 days (reference value: 7.45 log10CFU/g); assay type: functional; conditions: time 2 day
Staphylococcus aureus [3] = test: (§2) Antibacterial activity against methicillin-resistant Staphylococcus aureus ATCC 43300 infected in sepsis mouse model assessed as reduction in number of surviving bacterial colonies in liver at 10 mg/kg pre-infected with bacteria for 1 hrs followed by continuous compound administration at 12 hrs intervals for 2 days relative to control; assay type: functional; conditions: time 2 day
Cell membrane [4] = test: Induction of cell membrane disruption in methicillin-resistant Staphylococcus aureus ATCC 43300 assessed as increase in protein leakage; assay type: cell membranes
Staphylococcus aureus [5] = test: Disruption of preformed biofilm in methicillin-resistant Staphylococcus aureus ATCC 43300 assessed as eradication of biofilm at 64 microg/ml by crystal violet staining based analysis relative to control; assay type: functional; conditions: dose 64 µg/ml
Staphylococcus aureus [6] = test: Bactericidal activity against methicillin-resistant Staphylococcus aureus ATCC 43300 assessed as reduction in bacterial growth; assay type: functional, organism-based
Staphylococcus aureus [7] = test: Selectivity ratio of MBC for bactericidal activity against methicillin-resistant Staphylococcus aureus ATCC 43300 in presence of 50% human blood to MBC for bactericidal activity against methicillin-resistant Staphylococcus aureus ATCC 43300; assay type: functional
Staphylococcus aureus [8] = test: as §1, with “in kidney” for “in spleen”, “at 5” for “at 10”, “value: 6.75” for “value: 7.45”; assay type: functional; conditions: time 2 day
Cell membrane [9] = test: Induction of cytoplasmic membrane depolarization in methicillin-resistant Staphylococcus aureus ATCC 43300 assessed as increase in fluorescence intensity by DiSC3(5) dye-based fluorescence assay; assay type: cell membranes
Staphylococcus aureus [10] = test: Antibacterial activity against methicillin-resistant Staphylococcus aureus ATCC 43300 infected in sepsis mouse model assessed as reduction in pathological damages in spleen at 5 to 10 mg/kg pre-infected with bacteria for 1 hrs followed by continuous compound administration at 12 hrs intervals for 2 days by H and E staining based analysis; assay type: functional, organism-based; conditions: dose 5-10 mg/kg, time 2.0 day
Staphylococcus aureus [11] = test: Bactericidal activity against methicillin-resistant Staphylococcus aureus ATCC 43300 assessed as bacterial killing at 16 microg/ml measured after 8 hrs by time-kill kinetics analysis relative to control; assay type: functional; conditions: dose 16 µg/ml
Staphylococcus aureus [12] = test: as §1, with “blood” for “spleen”, “5” for “10”, “3.69 log10CFU/ml)” for “7.45 log10CFU/g)”; assay type: functional; conditions: time 2 day
Staphylococcus aureus [13] = test: as §2, with “blood” for “liver”; assay type: functional; conditions: time 2 day
Pseudomonas aeruginosa = test: Antibacterial activity against penicillin-susceptible Pseudomonas aeruginosa ATCC 27853; assay type: functional
Staphylococcus aureus [14] = test: Inhibition of biofilm formation in methicillin-resistant Staphylococcus aureus ATCC 43300 at 8 microg/ml relative to control; assay type: functional
Staphylococcus aureus [15] = test: Inhibition of biofilm formation in methicillin-resistant Staphylococcus aureus ATCC 43300; assay type: functional, organism-based; conditions: dose 2-32 µg/ml
Cell membrane [16] = test: Disruption of cell membrane in methicilin-resistant Staphylococcus aureus ATCC 43300 assessed as appearance of wrinkled cell membrane by scanning electron microscopic analysis; assay type: cell membranes
[17] = system: Staphylococcus epidermidis; test: Antibacterial activity erythromycin-susceptible Staphylococcus epidermidis ATCC 12228; assay type: functional
Klebsiella pneumoniae = test: Antibacterial activity against Klebsiella pneumoniae ATCC 10031; assay type: functional
Staphylococcus aureus [18] = test: as §2, with “kidney” for “liver”, “5” for “10”; assay type: functional; conditions: time 2 day
Staphylococcus aureus [19] = test: as §2, with “5” for “10”; assay type: functional; conditions: time 2 day
Bacillus subtilis = test: Antibacterial activity against penicillin-susceptible Bacillus subtilis ATCC 9372; assay type: functional
Staphylococcus aureus [20] = test: Disruption of preformed biofilm in methicillin-resistant Staphylococcus aureus ATCC 43300 assessed as eradication of biofilm by crystal violet staining method; assay type: functional, organism-based; conditions: dose 2-64 µg/ml
Staphylococcus aureus [21] = test: Induction of ROS production in methicillin-resistant Staphylococcus aureus ATCC 43300 assessed as fold increase in ROS level at 32 microg/ml by DCFH-DA staining based analysis; conditions: dose 32 µg/ml
Cell membrane [22] = test: Induction of cytoplasmic membrane depolarization in methicillin-resistant Staphylococcus aureus ATCC 43300 assessed as increase in fluorescence intensity at 2 microg/ml by DiSC3(5) dye-based fluorescence assay; assay type: cell membranes; conditions: dose 2.0 µg/ml
Staphylococcus aureus [23] = test: Bactericidal activity against methicillin-resistant Staphylococcus aureus ATCC 43300 in presence of 50% human plasma by Mueller Hinton broth based assay; assay type: functional
Staphylococcus aureus [24] = test: Bactericidal activity against methicillin-resistant Staphylococcus aureus ATCC 43300 assessed as log reduction in bacterial growth at 16 microg/ml measured after 4 hrs by time-kill kinetics analysis; assay type: functional; conditions: dose 16 µg/ml
Cell membrane [25] = test: Induction of cytoplasmic membrane permeabilization in methicillin-resistant Staphylococcus aureus ATCC 43300 assessed as increase fluorescence intensity at 16 microg/ml by PI staining based fluorescence analysis; assay type: cell membranes; conditions: dose 16.0 µg/ml
Staphylococcus aureus [26] = test: Bacteriostatic activity against methicillin-resistant Staphylococcus aureus ATCC 43300 assessed as inhibition of bacterial growth at 2 times of MIC measured after 24 hrs by time-kill kinetic analysis; assay type: functional, organism-based

## CCCCN(CCCC)CCCNCCCOc1c(C(C)=O)ccc2c1C=CC(C)(CCC=C(C)C)O2 (centres undefined)
Staphylococcus aureus [1]
  MIC: 2 µg/mL (≈ 3.9 µM)
Staphylococcus aureus [2]
  Activity: 2.24 log10CFU/g
Staphylococcus aureus [3]
  Activity: 99.8%
Cell membrane [4]
  Activity: Active
Staphylococcus aureus [5]
  Activity: >40%
Staphylococcus aureus [6]
  Activity: Dose-Dependent Effect
Staphylococcus aureus [7]
  selectivity ratio: 2
Staphylococcus aureus [8]
  Activity: 2.09 log10CFU/g
Cell membrane [9]
  Activity: Dose-Dependent Effect
Staphylococcus aureus [10]
  Activity: Active
Staphylococcus aureus [11]
  Activity: 100%
Staphylococcus aureus [12]
  Activity: 1.1 log10CFU/ml
Staphylococcus aureus [13]
  Activity: 95.9%
Pseudomonas aeruginosa
  MIC: 32 µg/mL (≈ 62.4 µM)
Staphylococcus aureus [14]
  inhibition at 8 µg/mL: 37.2%
Staphylococcus aureus [15]
  inhibition: Dose-Dependent Effect
Cell membrane [16]
  Activity: Active
[17]
  MIC: 1 µg/mL (≈ 1.95 µM)
Klebsiella pneumoniae
  MIC: 4 µg/mL (≈ 7.8 µM)
Staphylococcus aureus [18]
  Activity: 99.2%
Staphylococcus aureus [19]
  Activity: 98.9%
Bacillus subtilis
  MIC: 2 µg/mL (≈ 3.9 µM)
Staphylococcus aureus [20]
  Activity: Dose-Dependent Effect
Staphylococcus aureus [21]
  fold change (FC): 5
Cell membrane [22]
  Activity: inactive
Staphylococcus aureus [23]
  MBC: 16 µg/mL
Staphylococcus aureus [24]
  log(activity): 8.35
Cell membrane [25]
  Activity: Active
Staphylococcus aureus [26]
  Activity: Active
